Experiments:
St. Aereus = assay: Anti-microbial screening, agar dilution, St. Aereus; assay type: cell-based, Staphylococcus aureus; conditions: after 10, 20, 40 and 60 minutes at all dilutions 1:100, 1:200, 1:400, 1:800
Protocol: (§1) The antibacterial properties of the present compound were studied by the method of agar dilution. Test solutions of the compound were prepared in a concentration of 1% using dimethylformamide as a solvent then they are diluted in physiological solution to obtain the final experimental dilutions 1:100, 1:200, 1:400, and 1:800. The effect of these substances were compared with furacillin in a controllable study. The testing microbes used were gram positive bacteria St. Aereus, gram negative bacteria E. Coli, Ps. aeruginosa and Candida albicans fungi were taken. The experiments used for this survey were meat-pentonlu agar (EPA) for cultivation of bacteria and Saburo environment for fungi. Each experiment used 1 ml of test solution on each plate 500 min. Add 2 drops of emulsified with microbes feel. All experimental samples were taken from the agar after 10, 20, 40, and 60 minutes in the environment on the basis of Patrk planted. Bacteria were cultivated at a temperature of 37° C. for 1 day and the mushroom was kept in a thermostat for […] at a temperature of 28° C. Then results were checked.

E. Coli = assay: Anti-microbial screening, agar dilution, E. Coli; assay type: cell-based, Escherichia coli; conditions: after 10, 20, 40 and 60 minutes at all dilutions 1:100, 1:200, 1:400, 1:800
Protocol: as §1

Ps. aeruginosa = assay: Anti-microbial screening, agar dilution, Ps. aeruginosa; assay type: cell-based, Pseudomonas aeruginosa; conditions: after 10, 20, 40 and 60 minutes at all dilutions 1:100, 1:200, 1:400, 1:800
Protocol: as §1

Candida albicans = assay: Anti-microbial screening, agar dilution, Candida albicans; assay type: cell-based; conditions: after 10, 20, 40 and 60 minutes at all dilutions 1:100, 1:200, 1:400, 1:800
Protocol: as §1

## CC(O)Cn1c(-c2ccncc2O)nc(-c2ccccc2)c1-c1ccccc1 (centres unmarked) [4-(1-(2-Hydroxypropyl)-4,5-diphenyl-1H-imidazol-2-yl)pyridin-3-ol]
St. Aereus
  inhibition activity (in words): highest inhibition activity
E. Coli
  inhibition activity (in words): highest inhibition activity
Ps. aeruginosa
  inhibition activity (in words): highest inhibition activity
Candida albicans
  inhibition activity (in words): highest inhibition activity
other
  melting point: 117 to 118 °C

— patent US11970475B1, “4-(1-(2-Hydroxypropyl)-4,5-diphenyl-1H-imidazol-2-yl)pyridin-3-ol as an antimicrobial compound” (KING FAISAL UNIVERSITY, priority 2023, dated 2024)
